Data taken from patent US7759526B2 (priority 2000, dated 2010).
Entries after “also recorded” stand apart in the source; their conditions may differ.

Legend:
[1] = system: tetradecanoylphorbolacetable (TPA) induced erythema of mouse ear; conditions: application of a 100 μg/ml solution; Formukong et al. 1988; cited from earlier work
CB2 = CB2 (Homo sapiens, UniProt P34972); conditions: cited from earlier work
[2] = system: phenylbenzoquinone writhing; conditions: Formukong et al. 1988; cited from earlier work
[3] = system: uptake of endocannabinoids into neuronal cells; assay: Uptake of endocannabinoids into neuronal cells; format: cell-based; conditions: preliminary data
[4] = system: human HL-60 promyelecytic leukemia cells; assay: Apoptosis of HL-60 cells, Hoechst 33258 stain; format: cell-based; conditions: for % apoptosis / programmed cell death (apoptosis): HL-60; for % apoptosis: 24 h; for programmed cell death (apoptosis): dose dependent 0.1 μg/ml to 8 μg/ml
Description: The method used, namely determination by the fluorescent Hoechst 33258 stain, is described by T. R. Chen (Cell Res. 104, 255-262, 1977). A Table of results is appended in following Table D.

serum TNFα = assay: Serum TNFα in mice after ip injection of LPS; format: in vivo
Procedure: This anti TNFα effect is also seen in vivo. High levels of TNFα appear in serum of mice after ip injection of 5 mg/kg/mouse lipopolysaccharide (LPS). […] At the lower dose of 0.5 mg/kg 80% suppression of TNFα level was observed. […] Thus 7-hydroxy-CBD (2a) in doses of 10 μg/kg i.p. suppressed serum TNFα in mice (30%).

[5] = Antianxiety and anticonvulsive effects (preliminary data)
[6] = system: arachidonic acid-induced swelling of the ear; assay: Arachidonic acid-induced ear inflammation in the mouse; format: in vivo
Procedure: Mice (female Sabra) were treated with […] A′ A (in 5 μl EtOH) dispersed on the inner surface of one of the ears. The other ear was treated with 5 μl of EtOH. Ear swelling was assessed by measuring ear thickness with a dial thickness gauge (Mitutoyo, Japan) just before treatment and 30 min after A; A application. The drugs (40 mg/kg for the cannabinoids and 20 mg/kg for indomethacin) were injected i.p. 60 min before the A′ A treatment. *** indicates p<0.001.
The effect of various doses of CBD-7-oic acid (3a) (Example 28), and of CBD-DMH-7-oic acid (3b) (Example 28) and of indomethacin (20 mg/kg) after arachidonic acid-induced swelling of the ear are shown in FIG. 2. The effects were measured over 75 min after the administration of arachidonic acid.
(§1) Female Sabra mice (2 months old, Harlan-Sprague Dawley, Jerusalem) were used for a series of tests and for the assays for inflammation and peripheral pain. Groups of 5 mice were used in each experiment. Compounds 2a, 2b, 3a and 3b were dissolved in vehicle (ethanol:emulphor:saline=1:1:18) and injected intraperitoneally (i.p.) in volumes of 0.1 ml/10 g in mice as previously described (Hanus et al., 1999).
Ear inflammation was measured by assessing ear tissue swelling after topical application of arachidonic acid. […] The opposite ear served as control (5 μl ethanol). Ear thickness was determined (in 0.01 mm units) every 15 min for 90 min starting immediately after arachidonic acid application using a dial thickness gauge (Mitutoyo, Japan).

[7] = system: formalin-induced paw licking; assay: Formalin test for peripheral pain; format: in vivo, mouse; conditions: mice; 20 mg/kg; 5 min recorded 30 min after formalin (3.2%)
Procedure: Thus mice injected with formalin (3.2% dissolved in saline) licked their paws 8±2 times over 5 min, recorded 30 min after the formalin administration.
as §1
Pain mediated by the peripheral nervous system, was tested in the ‘formalin test’ for cutaneous (peripheral) pain (Tjolson et al., 1992; Calignano et al., 1998; Jaggar et al, 1998). The compound tested (or vehicle) was injected i.p. Formalin (3.2% dissolved in saline) was injected s.c. in the plantar surface of the hind paw of a mouse (in 20 μl volumes) 90 min after the drug. Immediately after formalin administration nociception was assessed (every 5 min for 1 hr) by the number of times the animal licks for formalin-injected paw.

[8] = system: release of reactive oxygen intermediates by monocytic RAW 264.7 cells; assay: Zymosan-induced release of reactive oxygen intermediates, chemiluminescence; format: cell-based
Description: Table of results are attached in following Table C.
(§2) The experimental methods used have been described in Gallily et al. (Eur. J. Pharmacol. 406, R5-R7, 2000), Avron and Gallily (J. Leukocyte Biol. 57, 264-268, 1995) and Gallily et al. (J. Pharmacol. Exp. Ther. 283, 918-924, 1997).

[9] = system: TNFα production by Thioglycollate-elicited macrophages (TGMMΦ); assay: TNFα production by thioglycollate-elicited macrophages; format: cell-based, murine; conditions: TGMΦ; for % inhibition of TNFα titer: 24 hrs
Procedure: (§3) The inhibition is dose dependent (10 μg-0.001 μg/ml). Tables of results are attached in following Tables A and B.
as §2

[10] = system: TNFα production by RAW 264.7 mouse monocytic cell line; assay: TNFα production by RAW 264.7 mouse monocytic cell line; format: cell-based; set-up: TNFα Titer S50: unit not given beside the values
Procedure: as §3, §2

CB1 = target: T1, CB1 (Rattus norvegicus, UniProt P20272); conditions: previously described probe; cited from earlier work
T1 construct: synaptosomal membranes prepared from rat brains; from tissue; host or cells: rat brain synaptosomal membranes

[11] = cannabinoid 40 mg/kg i.p., compared with indomethacin 20 mg/kg i.p.
[12] = cannabinoid 5 mg/kg, compared with indomethacin 20 mg/kg
[13] = cannabinoid 80 mg/kg, compared with indomethacin 20 mg/kg

Chain of CB2 (P34972 whole entry, species assumed): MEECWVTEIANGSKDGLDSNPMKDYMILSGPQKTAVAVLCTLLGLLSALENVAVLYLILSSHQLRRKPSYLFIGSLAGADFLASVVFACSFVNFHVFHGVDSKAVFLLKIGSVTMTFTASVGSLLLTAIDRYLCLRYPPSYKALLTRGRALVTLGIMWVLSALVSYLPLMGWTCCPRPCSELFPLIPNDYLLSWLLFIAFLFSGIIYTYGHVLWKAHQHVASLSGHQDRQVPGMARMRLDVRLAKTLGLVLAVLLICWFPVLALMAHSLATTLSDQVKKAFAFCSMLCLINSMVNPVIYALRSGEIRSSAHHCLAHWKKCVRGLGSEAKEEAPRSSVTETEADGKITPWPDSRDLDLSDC
T1 sequence (P20272 whole entry): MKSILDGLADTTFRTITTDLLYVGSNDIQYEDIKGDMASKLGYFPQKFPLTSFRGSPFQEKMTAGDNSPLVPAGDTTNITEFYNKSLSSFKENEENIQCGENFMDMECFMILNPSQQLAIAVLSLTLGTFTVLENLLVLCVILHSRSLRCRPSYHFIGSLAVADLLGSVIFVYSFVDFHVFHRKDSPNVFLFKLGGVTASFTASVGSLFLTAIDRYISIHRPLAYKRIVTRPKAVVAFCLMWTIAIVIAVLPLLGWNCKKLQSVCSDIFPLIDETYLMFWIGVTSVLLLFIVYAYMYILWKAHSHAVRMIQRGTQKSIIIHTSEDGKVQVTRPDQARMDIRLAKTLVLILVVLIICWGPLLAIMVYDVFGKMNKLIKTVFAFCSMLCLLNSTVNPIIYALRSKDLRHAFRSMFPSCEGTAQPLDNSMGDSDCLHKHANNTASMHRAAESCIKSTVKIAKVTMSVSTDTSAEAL

C=C(C)[C@@H]1CCC(C)=C[C@H]1c1c(O)cc(CCCCC)cc1O [CBD, Cannabidiol]
inhibition of the inflammation response [1]: 92%
binding to cannabinoid receptor CB2 (CB2): does not bind
analgesic potency compared with aspirin [2]: much more potent than aspirin
uptake of endocannabinoids into neuronal cells [3]: prevent the uptake of endocannabinoids into neuronal cells
% apoptosis ([4]; 1 μg/ml, no irradiation): 19%
% apoptosis ([4]; 1 μg/ml, γ-irradiation 800 rad): 28%
% apoptosis ([4]; 4 μg/ml, no irradiation): 33%
% apoptosis ([4]; 4 μg/ml, γ-irradiation 800 rad): 45%
% apoptosis ([4]; 8 μg/ml, no irradiation): 48%
% apoptosis ([4]; 8 μg/ml, γ-irradiation 800 rad): 85%
programmed cell death (apoptosis) [4]: high rate of programmed cell death
apoptosis, synergism with γ ray irradiation ([4]; HL-60 irradiated by γ ray (800 rad) and treated with cannabinoid): up to 85%

C=C(C)[C@@H]1CCC(C)=C[C@H]1c1c(O)cc(C(C)(C)CCCCCC)cc1O [Compound 1b, CBD-DMH, reference compound]
uptake of endocannabinoids into neuronal cells [3]: prevent the uptake of endocannabinoids into neuronal cells

C=C(C)[C@@H]1CCC(CO)=C[C@H]1c1c(O)cc(CCCCC)cc1O [Compound 2a, 7-Hydroxy CBD]
suppression of serum TNFα (serum TNFα; 10 μg/kg i.p.): 30%
uptake of endocannabinoids into neuronal cells [3]: prevent the uptake of endocannabinoids into neuronal cells
antianxiety and anticonvulsive effects [5]: have antianxiety and anticonvulsive effects
antiinflammatory effect on arachidonic acid-induced ear swelling [6, 11]: less active than the potent antiinflammatory drug indomethacin
paw licking, late phase of formalin-induced pain behavior [7]: fully blocked the licking

C=C(C)[C@@H]1CCC(CO)=C[C@H]1c1c(O)cc(C(C)(C)CCCCCC)cc1O [Compound 2b, 7-Hydroxy CBD-DMH]
uptake of endocannabinoids into neuronal cells [3]: prevent the uptake of endocannabinoids into neuronal cells
antianxiety and anticonvulsive effects [5]: have antianxiety and anticonvulsive effects
antiinflammatory effect on arachidonic acid-induced ear swelling [6, 11]: less active than the potent antiinflammatory drug indomethacin
paw licking, late phase of formalin-induced pain behavior [7]: fully blocked the licking

C=C(C)[C@@H]1CCC(C(=O)O)=C[C@H]1c1c(O)cc(CCCCC)cc1O [Compound 3a, 7-Nor-carboxy CBD]
Cherniluminescense peak ([8]; Zymosan + 4 μg/ml): 4139
Inhibition % of ROI release ([8]; Zymosan + 4 μg/ml): 31%
Cherniluminescense peak ([8]; Zymosan + 10 μg/ml): 1041
Inhibition % of ROI release ([8]; Zymosan + 10 μg/ml): 83%
antianxiety and anticonvulsive effects [5]: have antianxiety and anticonvulsive effects
antiinflammatory effect on arachidonic acid-induced ear swelling [6, 12]: less active than 3b
antiinflammatory effect on arachidonic acid-induced ear swelling [6, 11]: essentially equivalent to that of indomethacin
antiinflammatory effect on arachidonic acid-induced ear swelling [6, 13]: less effective than indomethacin
paw licking, late phase of formalin-induced pain behavior [7]: fully blocked the licking

C=C(C)[C@@H]1CCC(C(=O)O)=C[C@H]1c1c(O)cc(C(C)(C)CCCCCC)cc1O [Compound 3b, 7-Nor-carboxy CBD DMH]
Cherniluminescense peak ([8]; Zymosan + 4 μg/ml): 1524
Inhibition % of ROI release ([8]; Zymosan + 4 μg/ml): 83%
Cherniluminescense peak ([8]; Zymosan + 10 μg/ml): 432
Inhibition % of ROI release ([8]; Zymosan + 10 μg/ml): 95%
suppression of TNFα level in serum (serum TNFα; 0.5 mg/kg simultaneously with LPS): 80%
suppression of serum TNFα level (serum TNFα; 0.5 and 5 mg/kg simultaneously with LPS 5 mg/kg ip): suppressed serum TNFα level
antianxiety and anticonvulsive effects [5]: have antianxiety and anticonvulsive effects
antiinflammatory effect on arachidonic acid-induced ear swelling [6, 12]: fully suppressed the inflammation; also recorded: as potent as indomethacin
antiinflammatory effect on arachidonic acid-induced ear swelling [6, 11]: essentially equivalent to that of indomethacin
antiinflammatory effect on arachidonic acid-induced ear swelling [6, 13]: less effective than indomethacin
TNFα Titer (S50) After 24 hrs. ([9]; LPS + 0.01 μg/ml): 535
% inhibition of TNFα titer ([9]; LPS + 0.01 μg/ml): 36%
TNFα Titer (S50) After 24 hrs. ([9]; LPS + 1 μg/ml): 501
% inhibition of TNFα titer ([9]; LPS + 1 μg/ml): 40%
TNFα Titer (S50) After 24 hrs. ([9]; LPS + 5 μg/ml): 406
% inhibition of TNFα titer ([9]; LPS + 5 μg/ml): 51%
TNFα Titer (S50) After 24 hrs. ([9]; LPS + 10 μg/ml): 159
% inhibition of TNFα titer ([9]; LPS + 10 μg/ml): 81%
% inhibition of TNFα titer ([10]; LPS + 0.01 μg/ml): 11%
TNFα Titer S50 ([10]; LPS + 0.01 μg/ml): 5818
% inhibition of TNFα titer ([10]; LPS + 0.1 μg/ml): 45%
TNFα Titer S50 ([10]; LPS + 0.1 μg/ml): 357.6
% inhibition of TNFα titer ([10]; LPS + 1 μg/ml): 63%
TNFα Titer S50 ([10]; LPS + 1 μg/ml): 2384
% inhibition of TNFα titer ([10]; LPS + 4 μg/ml): 65%
TNFα Titer S50 ([10]; LPS + 4 μg/ml): 2300
% inhibition of TNFα titer ([10]; LPS + 10 μg/ml): 91%
TNFα Titer S50 ([10]; LPS + 10 μg/ml): 615
% apoptosis ([4]; 5 μg/ml, no irradiation): 15%
% apoptosis ([4]; 5 μg/ml, γ-irradiation 800 rad): 25%
% apoptosis ([4]; 10 μg/ml, no irradiation): 27%
% apoptosis ([4]; 10 μg/ml, γ-irradiation 800 rad): 58%
programmed cell death (apoptosis) [4]: high rate of programmed cell death
paw licking, late phase of formalin-induced pain behavior [7]: fully blocked the licking

CCCCCCC(C)(C)c1cc(O)c2c(c1)OC(C)(C)[C@@H]1CC[C@@H](CO)C[C@@H]21 [[^3H]HU-243]
Ki (CB1): 0.045 ± 0.007 nM
